Experimental data as given in US12604900B2, “Penflufen as a wood preservative against wood- destroying basidiomy cetes” (LANXESS Deutschland GmbH, priority 2010, dated 2026).
Where two headings read alike, the source gives them in different places. Blank lines part the entries; values can stand above or below the molecule they belong to.

Key:
Coriolus versicolor [1] = assay: Synergism test (MIC of radial hyphae growth, SI by Kull); type: cell-based; conditions: Trametes versicolor
Protocol: (§1) Mycelium pieces were punched out of a colony of the wood-destroying fungus in question and incubated on a malt extract/peptone-containing nutrient agar at 26° C. The growth of the hyphae with and without active compound was compared. The minimum inhibitory concentration (MIC) stated was the concentration at which the radial hyphae growth was suppressed completely.
(§2) The synergism was determined using the method described by Kull et al. (F. C. Kull, P. C. Eismann, H. D. Sylvestrowicz, R. L. Mayer, Applied Microbiology 1961, 9, 538-541).

Gloeophyllum trabeum [2] = assay: Inhibition test with giant colonies of wood-destroying basidiomycetes; type: cell-based; conditions: 168 h, 1 ppm active compound, agar, 26° C., about 1 week
Protocol: (§3) Mycelium pieces were punched out of colonies of Coniophora puteana, Poria placenta, Lentinus tigrinus, Coriolus versicolor and Gloeophyllum trabeum and incubated on an agar nutrient soil at 26° C. The inhibition of the growth of the hyphae on active compound-comprising nutrient soil was compared to the longitudinal growth without addition of active compound and rated as inhibition in percent (incubation time: about 1 week, depending on the fungal growth of the comparative sample without active compound).

Coriolus versicolor [3] = assay: as above; type: cell-based; conditions: Trametes versicolor, 168 h; 1 ppm active compound, agar, 26° C., about 1 week
Protocol: as §3

Poria placenta [4] = assay: as above; type: cell-based; conditions: 168 h; 1 ppm active compound, agar, 26° C., about 1 week
Protocol: as §3

Lentinus tigrinus [5] = assay: as above; type: cell-based; conditions: 168 h, 1 ppm active compound, agar, 26° C., about 1 week
Protocol: as §3

Coniophora puteana [6] = assay: as above; type: cell-based; conditions: 168 h, 1 ppm active compound, agar, 26° C., about 1 week
Protocol: as §3

Poria placenta [7] = assay: Synergism test (MIC of radial hyphae growth, SI by Kull); type: cell-based
Protocol: as §1, §2

Lentinus tigrinus [8] = assay: as above; type: cell-based; conditions: read-out: MIC (ppm) Lentinus tigrinus
Protocol: as §1, §2

Coniophora puteana [9] = assay: as above; type: cell-based
Protocol: as §1, §2

Stereum sanguinolentum = assay: as above; type: cell-based; conditions: 2.4 penflufen and tebuconazole, read-out: MIC against Stereum sanguinolentum (ppm)
Protocol: as §1, §2

Gloeophyllum trabeum [10] = assay: as above; type: cell-based; conditions: 2.3 penflufen and copper(II) oxide, read-out: MIC against Gloeophyllum trabeum (ppm)
Protocol: Mycelium pieces were punched out of a colony of the wood-destroying fungus in question and incubated on a malt extract/peptone-containing nutrient agar at 26° C. […] The minimum inhibitory concentration (MIC) stated was the concentration at which the radial hyphae growth was suppressed completely.

Coniophora puteana [11] = assay: Activity test analogously to EN113 on drenched pine specimens; conditions: for Loss of mass [%]: pine, 6 weeks, mean of 6 specimens (untreated: 24)
Protocol: (§4) Penflufen (I) was tested analogously to the EN113 standard test for activity against wood-destroying fungi. In contrast to the standard test, smaller pieces of wood were used and the pieces of wood were exposed to attack by the fungi for a shorter period of time.
(§5) To this end, dried test specimen (25×15×4 mm) made of pine (Pinus sylvestris) were in each case vacuum-drenched with solutions of penflufen (I) in toluene. From the concentration of penflufen (I) in the drench solution and the uptake of the drench solution into the test specimen, the amount of active compound taken up by the test specimen (retention) was calculated. The test specimens were dried and then weighed. To prevent falsifying colonisation by foreign pathogens, the test specimen were sterilised with y rays.
The test specimens were brought into contact with the wood-destroying organism Coniophora puteana and stored for 6 weeks. The test pieces of wood were then cleaned, dried and weighed. This was used to calculate the loss of mass. For each retention, the mean of 6 test specimens was determined.

Poria placenta [12] = assay: as above; conditions: for Loss of mass [%]: pine, 6 weeks, mean of 6 specimens (untreated: 20)
Protocol: as §4, §5
The test specimen were brought into contact with the wood-destroying organism Poria placenta and stored for 6 weeks. The test pieces of wood were then cleaned, dried and weighed. This was used to calculate the loss of mass. For each retention, the mean of 6 test specimens was determined.

[13] = 2.9 penflufen and bifenthrin, read-out: MIC against Coriolus versicolor (ppm)
[14] = 2.2 penflufen and fenpropimorph
[15] = 2.2 penflufen and fenpropimorph, read-out: MIC (ppm) Coniophora puteana
[16] = 2.1 penflufen and thiabendazole, malt extract/peptone agar 26° C., read-out: MIC against Coriolus versicolor (ppm)
[17] = 2.6 penflufen and permethrin, read-out: MIC against Poria placenta (ppm)
[18] = 2.5 penflufen and propiconazole, read-out: MIC against Coniophora puteana (ppm)
[19] = result in words, EN113-like test
[20] = retention of penflufen 50 g/m^3

SMILES: Cc1c(COC(=O)[C@@H]2[C@H](/C=C(\Cl)C(F)(F)F)C2(C)C)cccc1-c1ccccc1 (racemic) [bifenthrin, reference compound]
MIC (Coriolus versicolor [1]; [13]): 60 µg/mL

SMILES: C=C(c1ccccc1NC(=O)c1c(C)nn(C)c1F)C(C)C [III]
inhibition at 1 ppm (Gloeophyllum trabeum [2]): 18% | inhibition at 1 ppm (Coriolus versicolor [3]): 78% | inhibition at 1 ppm (Poria placenta [4]): 45% | inhibition at 1 ppm (Lentinus tigrinus [5]): 37% | inhibition at 1 ppm (Coniophora puteana [6]): 25%

SMILES: CCCC(C)c1ccccc1NC(=O)c1c(C)nn(C)c1F (stereo not shown) [II]
inhibition at 1 ppm (Gloeophyllum trabeum [2]): 11% | inhibition at 1 ppm (Coriolus versicolor [3]): 15% | inhibition at 1 ppm (Poria placenta [4]): 3% | inhibition at 1 ppm (Lentinus tigrinus [5]): 17% | inhibition at 1 ppm (Coniophora puteana [6]): 12%

SMILES: CC1(C)C(C=C(Cl)Cl)C1C(=O)OC(C#N)c1cccc(Oc2ccccc2)c1 (stereo not shown) [cypermethrin, reference compound]
MIC (Coriolus versicolor [1]; read-out: MIC (ppm) Coriolus versicolor): > 100 µg/mL | MIC (Poria placenta [7]; read-out: MIC (ppm) Poria placenta): > 100 µg/mL

SMILES: CCOc1ccc(C(C)(C)COCc2cccc(Oc3ccccc3)c2)cc1 [etofenprox, reference compound]
MIC (Poria placenta [7]; 2.7 penflufen and etofenprox, read-out: MIC against Poria placenta (ppm)): > 100 µg/mL

SMILES: CC(Cc1ccc(C(C)(C)C)cc1)CN1C[C@@H](C)O[C@@H](C)C1 (stereo partly shown) [fenpropimorph, reference compound]
MIC (Lentinus tigrinus [8]; [14]): 30 µg/mL | MIC (Coniophora puteana [9]; [15]): 30 µg/mL

MIC (Stereum sanguinolentum): 3 µg/mL | MIC (Coriolus versicolor [1]; 2.10 penflufen and cypermethrin, read-out: MIC (ppm) Coriolus versicolor): 0.1 µg/mL | MIC (Coriolus versicolor [1]; [16]): 0.3 µg/mL | MIC (Coriolus versicolor [1]; [13]): 0.1 µg/mL | MIC (Poria placenta [7]; 2.10 penflufen and cypermethrin, read-out: MIC (ppm) Poria placenta): 0.1 µg/mL | MIC (Poria placenta [7]; [17]): 0.1 µg/mL | MIC against Poria placenta (ppm) (Poria placenta [7]; 2.7 penflufen and etofenprox): 0.1 ppm | MIC (Lentinus tigrinus [8]; [14]): 0.5 µg/mL | MIC (Lentinus tigrinus [8]; 2.8 penflufen and prochloraz): 0.3 µg/mL | MIC (Coniophora puteana [9]; [15]): 1 µg/mL | MIC (Coniophora puteana [9]; [18]): 3 µg/mL | MIC (Coniophora puteana [9]; 2.8 penflufen and prochloraz, read-out: MIC (ppm) Coniophora puteana): 3 µg/mL | MIC (Gloeophyllum trabeum [10]): 0.3 µg/mL
SMILES: Cc1nn(C)c(F)c1C(=O)Nc1ccccc1C(C)CC(C)C (stereo not shown) [penflufen]
activity against the wood-destroying fungus Coniophora puteana (Coniophora puteana [11]; [19]): very good activity | Loss of mass [%] (Coniophora puteana [11]; [20]): 0% | Loss of mass [%] (Coniophora puteana [11]; retention of penflufen 103 g/m^3): 0% | activity against the wood-destroying fungus Poria placenta (Poria placenta [12]; [19]): very good activity | Loss of mass [%] (Poria placenta [12]; [20]): 0% | Loss of mass [%] (Poria placenta [12]; retention of penflufen 102 g/m^3): 0% | inhibition at 1 ppm (Gloeophyllum trabeum [2]): 100% | inhibition at 1 ppm (Coriolus versicolor [3]): 100% | inhibition at 1 ppm (Poria placenta [4]): 100% | inhibition at 1 ppm (Lentinus tigrinus [5]): 100% | inhibition at 1 ppm (Coniophora puteana [6]): 100%

SMILES: CC1(C)C(C=C(Cl)Cl)C1C(=O)OCc1cccc(Oc2ccccc2)c1 (stereo not shown) [permethrin, reference compound]
MIC (Poria placenta [7]; [17]): > 100 µg/mL

SMILES: CCCN(CCOc1c(Cl)cc(Cl)cc1Cl)C(=O)n1ccnc1 [prochloraz, reference compound]
MIC (Lentinus tigrinus [8]): 20 µg/mL | MIC (Coniophora puteana [9]; read-out: MIC (ppm) Coniophora puteana): > 30 µg/mL

SMILES: CCCC1COC(Cn2cncn2)(c2ccc(Cl)cc2Cl)O1 (stereo not shown) [propiconazole, reference compound]
MIC (Coniophora puteana [9]; [18]): 3 µg/mL

SMILES: CC(C)(C)C(O)(CCc1ccc(Cl)cc1)Cn1cncn1 (stereo not shown) [tebuconazole, reference compound]
MIC (Stereum sanguinolentum): 6 µg/mL

MIC (Coriolus versicolor [1]; [16]): 3 µg/mL
SMILES: c1ccc2[nH]c(-c3cscn3)nc2c1 [thiabendazole, reference compound]
